Data from patent publication US10619133B2, “Engineered living tissue substitute” (NATIONAL UNIVERSITY OF IRELAND, GALWAY, priority 2011, dated 2020).

Tests used:
enzymatic activity = settings: cited from earlier work
[1] = test system: human umbilical arterial smooth muscle cells (HUASMC); assay: ECM / collagen-1 deposition in human umbilical arterial smooth muscle cells; format: cell-based; settings: 0, 25, 50, 100 μM ascorbic acid; p>0.05
Method: Human lung fibroblasts (WI-38; American Tissue Culture Collection), Human skin fibroblasts (WS-1; American Tissue Culture Collection) were routinely cultured in Dulbecco's modified Eagle medium with 10% fetal bovine serum (FBS), 1% penicillin-streptomycin at 37° C. in a humidified atmosphere of 5% CO2. Commercially available Smooth Muscle Growth Medium-2 (CLONETICS® SmGM®-2) and supplements (SmGM-2 SingleQuots) were used for human umbilical arterial smooth muscle cells (HUASMC; CLONETICS® UASMC-Human Umbilical Artery Smooth Muscle Cells; Lonza CC-2579). Cells were seeded at 50,000 cells/well in 24-well plates and were allowed to attach for 24 hours. […] To induce collagen synthesis, fibroblasts were supplemented with 100 μM L-ascorbic acid phosphate. The HUASMC was supplemented with various concentration of ascorbic acid (0 μM, 25 μM, 50 μM and 100 μM). In some of the experiment commercially available human serum (Lonza, Belgium) was also used as supplement in place of FBS. At the end of culture time points, culture media were collected into separate vials, whereas cell layers were washed twice with Hank's balanced salt solution (HBSS). […] Cell layer and Medium samples were analyzed by SDS-PAGE under nonreducing conditions with Mini-Protean 3 (Bio-Rad Laboratories). […] Collagen bands were quantified by defining each band with the rectangular tool with background subtraction.

SMILES | effect on enzymatic activity (enzymatic activity) | effect of ascorbic acid on ECM deposition [1]
OC[C@H]1O[C@@](CO)(O[C@H]2O[C@H](CO)[C@@H](O)[C@H](O)[C@H]2O)[C@@H](O)[C@@H]1O [Sucrose] | Ineffective | 
O=C1O[C@H]([C@@H](O)CO)C(O)=C1O [ascorbic acid] |  | did not affected ECM deposition
